Like-named read-outs stand apart in the source and are kept apart here.

We go through 3 molecules from article PMC12444516, “Broad Substrate Specificity and High Catalytic Activity of Sphingomonadaceae PhoK-Type Phosphatases Implicated in Flame-Retardant Degradation” (ACS Omega, 2025).

The subject of data set [1] is T1, SmSRS2-PhoK.
T1 construct: predicted Sec/SPI signal peptide; from a smaller PhoK cluster outside the main Sphingomonadaceae cluster
The experiment in a line: UV/vis, phenol release at […] nm, initial rates. It is filed as biochemical, Sphingomonas sp. SRS2. The settings on record: 50 mM Ches pH 9.0; read-out: phenyl phosphate (2) / K m.

Data set [2] deals with SmTDK1-PhoK. To be noted: read-out: phenyl phosphate (2) / K m.
The test system of data set [3] is Sb-PhoK. To be noted: read-out: phenyl phosphate (2) / K m.
Data set [4] has as its system St-PhoK. The settings on record: read-out: phenyl phosphate (2) / K m.
For data set [5], the system named is No-PhoK. The settings on record: read-out: phenyl phosphate (2) / K m.
Data set [6] has as its system T2, Sb-PhoK.
T2 construct: predicted Sec/SPI signal peptide; ~2 Zn per protein
It is filed as biochemical, Sphingobium sp. TCM1. The settings on record: read-out: p-nitrophenyl phosphate (1) / K m.

Data set [7] concerns T3, St-PhoK.
T3 construct: predicted Sec/SPI signal peptide; also printed Sp-PhoK
It is filed as biochemical, Sphingopyxis terrae. The settings on record: read-out: p-nitrophenyl phosphate (1) / K m.

Data set [8] deals with T4, SmTDK1-PhoK.
T4 construct: synthetic codon-optimised gene in pET29a with native stop codon, untagged; E. coli BL21(DE3); ammonium sulfate, Resource Q flow-through, S200; predicted Sec/SPI signal peptide
The class given is biochemical, Sphingomonas sp. TDK1. To be noted: read-out: p-nitrophenyl phosphate (1) / K m.

Data set [9] relates to T5, No-PhoK.
T5 construct: predicted Sec/SPI signal peptide
It is filed as biochemical, Novosphingobium sp. EMRT-2. To be noted: read-out: p-nitrophenyl phosphate (1) / K m.

Data set [10] concerns T1, SmSRS2-PhoK. The experiment in a line: UV/vis, p-nitrophenol release at […] nm, initial rates. The class given is biochemical, Sphingomonas sp. SRS2. The settings on record: 50 mM Ches pH 9.0; read-out: p-nitrophenyl phosphate (1) / K m.
Substrate in data set [11]: O=P(O)(O)Oc1ccccc1
The experiment in a line: purified protein. It is filed as biochemical, Sphingomonas sp. The settings on record: 50 mM Ches pH 9.0.

Substrate in data set [12]: O=[N+]([O-])c1ccc(OP(=O)(O)O)cc1
The experiment in a line: purified protein. To be noted: 50 mM Ches pH 9.0.

Consider `O=P(O)(O)Oc1ccccc1` [compound 2, phenyl phosphate], for which the Km stood at 104 ± 5 µM in the data set on SmSRS2-PhoK [1]; 600 ± 20 µM with SmTDK1-PhoK [2]; 650 ± 30 µM in the data set on Sb-PhoK [3]; 81 ± 5 µM with St-PhoK [4]; 300 ± 20 µM in the data set on No-PhoK [5].

As to `O=[N+]([O-])c1ccc(OP(=O)(O)O)cc1` [compound 1, p-nitrophenyl phosphate], the Km in the data set with Sb-PhoK [6] worked out at 69 ± 2 µM; in the data set with St-PhoK [7], 78 ± 3 µM; in the data set on SmTDK1-PhoK [8], 450 ± 10 µM; with No-PhoK [9] it was 153 ± 5 µM; with SmSRS2-PhoK [10], 88 ± 4 µM.

B1: Sm-PhoK (Sphingomonas sp.) (protein)
chain: QSPAPAAAPAPAARSIAATPPKLIVAISVDQFSADLFSEYRQYYTGGLKRLTSEGAVFPRGYQSHAATETCPGHSTILTGSRPSRTGIIANNWFDLDAKREDKNLYCAEDESQPGSSSDKYEASPLHLKVPTLGGRMKAANPATRVVSVAGKDRAAIMMGGATADQVWWLGGPQGYVSYKGVAPTPLVTQVNQAFAQRLAQPNPGFELPAQCVSKDFPVQAGNRTVGTGRFARDAGDYKGFRISPEQDAMTLAFAAAAIENMQLGKQAQTDIISIGLSATDYVGHTFGTEGTESCIQVDRLDTELGAFFDKLDKDGIDYVVVLTADHGGHDLPERHRMNAMPMEQRVDMALTPKALNATIAEKAGLPGKKVIWSDGPSGDIYYDKGLTAAQRARVETEALKYLRAHPQVQTVFTKAEIAATPSPSGPPESWSLIQEARASFYPSRSGDLLLLLKPRVMSIPEQAVMGSVATHGSPWDTDRRVPILFWRKGMQHFEQPLGVETVDILPSLAALIKLPVPKDQIDGRCLDLVAGKDDSCAGQ
notes: predicted Sec/SPI signal peptide; binuclear Zn site, nucleophile T89
One may read the kcat as the maximal rate divided by the concentration of active sites. A word on the kcat/Km: it is the second-order rate constant that governs catalysis at low substrate concentration. With B1, in the data set “purified protein [11]”, the Km is 600 ± 20 µM, the catalytic constant (kcat) stood at 1100 ± 10 s⁻¹ and the kcat/Km was found to be 1.84e+06 ± 60000 M⁻¹ s⁻¹. Besides, the Km in the data set “purified protein [12]” was 174 ± 4 µM.
